For assay [1], the system named is eumycetoma. More on the design: method as in PMID 38690871, PMID 38935904, PMID 39098321. Particulars: eumycetoma patients, conditions of a clinical trial, combined with surgery; cited from earlier work.
Assay [2] has as its system M. mycetomatis fungal strain MM55. In words: M. mycetomatis MM55 in vitro susceptibility, MTS metabolic activity. It is filed as cell-based, Madurella mycetomatis. The conditions noted are these: for Metabolic activity upon treatment at 25 μM / Metabolic activity upon treatment at 100 μM: ± SD.
Experimental: The M. mycetomatis MM55 isolate obtained from a patient and identified and maintained in the Erasmus Medical Centre, Rotterdam, The Netherlands, was applied for the investigation of the in vitro susceptibility of the test compounds as reported previously [94]. In short, the fungal isolate was cultured on Sabouraud agar for 2 weeks at 37 °C, after which the mycelium was transferred in colorless RPMI 1640 medium supplemented with L-glutamine (0.3 g/L; Capricorn-Scientific, Ebsdorfergrund, Germany), morpholinepropanesulfonic acid (MOPS, 20 mM, Sigma, St. Louis, MO, USA), and chloramphenicol (100 mg/L, Oxoid, Basingstroke, UK). The mycelium was sonicated for 10 s at 10 μm with a probe sonicator (Soniprep, Beun de Ronde, Abcoude, The Netherlands) to obtain a hyphal suspension, after which the hyphal suspension was cultured for another week at 37 °C. The suspension was then collected by centrifugation (5 min, 3400 rpm) and washed with PBS followed by the addition of fresh RPMI 1640 medium, after which the mycelia was again sonicated for 10 s at 10 μm with a probe sonicator. The hyphal suspension was diluted to a transmission of 70% at 660 nm (Novaspec II; Pharmacia Biotech, Uppsala, Sweden). Then, 100 μL of the suspension was added to each well of a 96-wells plate (Costar 3799, Fisher Scientific, Breda, The Netherlands) that contained 1 μL of each compound sample. Compounds were initially evaluated at concentrations of 100 μM and 25 μM.
For the final metabolic activity evaluation, a viability dye named MTS, 3-(4,5-dimethylthiazol-2-yl)-5-(3-carboxymethoxyphenyl)-2-(4-sulfophenyl)-2H-tetrazolium salt, was applied as described in a previous study [64]. The following formula was used: Percentage metabolic activity=Absorbance test490nm−Absorbance NC490nm/Absorbance GC490nm−Absorbance NC490nm∗100
The growth control (GC) refers to the fungal isolate only and indicates 100% metabolic activity.
The test system of assay [3] is T. gondii RH strain tachyzoites. In words: T. gondii growth inhibition in infected Vero cells (infection index). It is filed as cell-based, Toxoplasma gondii. As to the method:
Cells of the Vero cell line (ATCC® CCL81™, Manassas, VA, USA) were used to cultivate T. gondii RH strain tachyzoites. The effects of test compounds on T. gondii growth were investigated according to previously published methods. Vero cells were maintained in complete RPMI 1640 medium supplemented with 10% heat-inactivated FBS, under a humidified atmosphere containing 5% CO2 at 37 °C. The cells were seeded in 96-well plates at a density of 5 × 10^3 cells/well (see also Figure S7) in 200 μL of RPMI 1640 medium and incubated at 37 °C with 5% CO2 for 24 h. Following incubation, the medium was discarded, and cells were washed with PBS. Subsequently, RPMI 1640 medium containing 2% FBS and T. gondii tachyzoites was added at a ratio of 5 parasite cells to 1 Vero cell. After 5 h incubation at 37 °C and 5% CO2, cells were washed with PBS and processed as outlined below.
Control: RPMI 1640 medium with 0.8% DMSO.
Experimental: RPMI 1640 medium containing test compounds (dissolved in DMSO) at concentrations of 90, 30, 10, 3.3, 1.1, 0.37, and 0.12 μg/mL. Atovaquone (ATO) was used as positive control.
Cells were incubated at 37 °C and 5% CO2 for 72 h, washed with PBS, fixed in 10% formalin, and stained with 1% toluidine blue. The infection index, defined as the number of infected cells out of 200 examined cells, was determined using an inverted photomicroscope.
The percentage of inhibition was calculated using the following equation:Inhibition (%) = [(I Control − I Experimental)/I Control] × 100 where “I Control” is the infection index of untreated cells, and “I Experimental” is the infection index of cells treated with test compounds.

Assay [4] has as its system peritoneal macrophages. The assay is described as follows: Macrophage cytotoxicity (MTT). It is filed as cell-based, BALB/c mice. The conditions noted are these: Mus musculus, 72 h, read-out: IC50 Macrophages. How it is done: For amastigote activity assays, peritoneal macrophages were collected from BALB/c mice (7 weeks old) by aspiration. Cells (5 × 10^4 cells/well) were seeded into 96-well plates (see also Figure S7) with phenol red-free RPMI 1640 medium containing 10% FBS and incubated at 37 °C with 5% CO2 for 4 h to allow adhesion. After discarding the medium and washing with PBS, 200 μL of L. major promastigotes in RPMI 1640 medium (10 promastigotes per macrophage) were added. Plates were incubated at 37 °C with 5% CO2 for 24 h to promote macrophage infection and amastigote differentiation. Unattached promastigotes were removed by washing with PBS (three times), and fresh phenol red-free RPMI 1640 medium containing test compounds (90, 30, 10, 3.3, 1.1, 0.37, and 0.12 μg/mL) was added. Cultures were incubated at 37 °C in 5% CO2 for 72 h. […] After incubation, cells were fixed and Giemsa-stained, and the percentage of infected macrophages was determined microscopically. IC50 values were calculated from three independent experiments. […]
MTT assays were performed to assess the cytotoxicity of the test compounds. […] The absorbance was measured at 540 nm using a FLUOstar OPTIMA spectrophotometer (BMG LABTECH, Ortenberg, Germany). […] IC50 values were determined from three independent experiments.

The subject of assay [5] is L. major intramacrophageal amastigotes. In words: L. major intramacrophageal amastigote assay (Giemsa, infected macrophages). It is filed as cell-based, Leishmania major. The conditions noted are these: for IC50: Leishmania major, Macrophage, 72 h, read-out: IC50 Amastigotes. As to the method:
Promastigotes of L. major were isolated from a patient in February 2016 and cultured at 26 °C in Schneider’s Drosophila medium (Invitrogen, Carlsbad, CA, USA) supplemented with 10% heat-inactivated fetal bovine serum (FBS, Invitrogen, USA) and antibiotics. Cultures were maintained in tissue culture flasks with weekly transfers. The promastigotes were cryopreserved in liquid N2 at a concentration of 3 × 10^6 parasites/mL. Virulent L. major parasites were maintained by serial passage in BALB/c mice through hind footpad injections of 1 × 10^6 stationary-phase promastigotes, and amastigotes were isolated after 7 weeks. Isolated amastigotes were converted to promastigotes by culturing at 26 °C in Schneider’s medium with antibiotics and 10% FBS. Amastigote-derived promastigotes, with fewer than five in vitro passages, were used for infection experiments.
For amastigote activity assays, peritoneal macrophages were collected from BALB/c mice (7 weeks old) by aspiration. Cells (5 × 10^4 cells/well) were seeded into 96-well plates (see also Figure S7) with phenol red-free RPMI 1640 medium containing 10% FBS and incubated at 37 °C with 5% CO2 for 4 h to allow adhesion. After discarding the medium and washing with PBS, 200 μL of L. major promastigotes in RPMI 1640 medium (10 promastigotes per macrophage) were added. Plates were incubated at 37 °C with 5% CO2 for 24 h to promote macrophage infection and amastigote differentiation. Unattached promastigotes were removed by washing with PBS (three times), and fresh phenol red-free RPMI 1640 medium containing test compounds (90, 30, 10, 3.3, 1.1, 0.37, and 0.12 μg/mL) was added. Cultures were incubated at 37 °C in 5% CO2 for 72 h. […] After incubation, cells were fixed and Giemsa-stained, and the percentage of infected macrophages was determined microscopically. IC50 values were calculated from three independent experiments. The isolation of parasites and macrophages was performed strictly following the rules and guidelines of the responsible committee of research ethics, Deanship of Scientific Research, Qassim University, Kingdom of Saudi Arabia (permission number 20-03-20).

Assay [6] concerns Vero monkey kidney cells. The assay is described as follows: Vero cell cytotoxicity (MTT). The conditions noted are these: Primates, 72 h, ± S.D. It is filed as cell-based. How it is done: MTT assays were performed to assess the cytotoxicity of the test compounds. Vero cells and isolated macrophages were seeded in 96-well plates at a density of 5 × 10^3 cells per well in 200 μL of RPMI 1640 medium with 10% FBS and incubated at 37 °C with 5% CO2 for 24 h. After incubation, cells were washed with PBS and treated with test compounds at varying concentrations (90, 30, 10, 3.3, 1.1, 0.37, and 0.12 μg/mL) in 10% FBS medium for 72 h. Negative control wells contained cells treated with medium in 2% FBS without test compounds (see also raw data in Table S5). After treatment, the supernatant was removed, and 50 μL of RPMI 1640 medium containing 14 μL of MTT solution (5 mg/mL) was added. The cells were incubated for an additional 4 h. Following incubation, the supernatant was discarded, and 200 μL of DMSO was added to dissolve the formazan crystals. The absorbance was measured at 540 nm using a FLUOstar OPTIMA spectrophotometer (BMG LABTECH, Ortenberg, Germany). […] IC50 values were determined from three independent experiments.

In assay [7] the test system is L. major promastigotes. The assay is described as follows: L. major promastigote viability (MTT). It is filed as cell-based. The conditions noted are these: Leishmania major, 72 h, read-out: IC50 Promastigotes.
Assay [8] relates to M. mycetomatis fungal strain MM55. Also on record: method as in PMID 37067830. Particulars: positive control, cited from earlier work.
[9] abbreviates: Madurella mycetomatis, read-out: IC50.

We go through 9 compounds from PMC11939259, “Antiparasitic and Antifungal Activities of Cetyl-Maritima, a New N-Cetyl-Modified Maritima Derivative” (Antibiotics, 2025).

“And” between values parts separate entries of the source, which are not always exact repeats. Identical values can stand only once. Like-named read-outs stand apart in the source and are kept apart here.

Regarding `C[C@@H](c1nc(-c2ccc(C#N)cc2)cs1)[C@@](Cn1cncn1)(OCOP(=O)(O)O)c1ccc(F)cc1F` [fosravuconazole], the cure rate in assay [1] is recorded as greater than 70%.

For “Dichlorido(η^6-p-cymene)[4-(4,8-dimethyl-3,7-nonadienyl)-pyridine]ruthenium(II) [Ru-Maritima]”, in assay [2], the “Metabolic activity upon treatment at 25 μM” value is 155% and 155.7 ± 22.2%; the “Metabolic activity upon treatment at 100 μM” value is listed as −6.6 ± 12.2%.

In the case of `CCCCCCCCCCCCCCCC[n+]1ccc(/C=C/c2ccc(N(C)C)cc2)cc1` [DAMS-16], in assay [2], the “Metabolic activity upon treatment at 25 μM” value came out at 56.9 ± 69.3% and the “Metabolic activity upon treatment at 100 μM” value came to 25.4 ± 4.3%. Besides, the IC50 in assay [2] (setting [9]) worked out at 16 µM.

On to `CCCCCCCCCCCCCCCC[n+]1ccc(/C=C/c2cc(OC)c(OC)c(OC)c2)cc1` [TMP-16], for which, in assay [2], the “Metabolic activity upon treatment at 25 μM” value turned out to be 13.3 ± 1.5% and the “Metabolic activity upon treatment at 100 μM” value was found to be 19.1 ± 1.1%. Further, the IC50 in assay [2] (setting [9]) was 18.2 µM.

Regarding `CCCCCCCCCCCCCCCC[n+]1ccc(CCC=C(C)CCC=C(C)C)cc1.[Br-]` [Cetyl-Maritima, 1-Hexadecyl-4-(4,8-dimethyl-3,7-nonadienyl)-pyridinium Bromide], the “SI selectivity index (Vero/T. gondii)” value in assay [3] turned out to be 1.3. The IC50 in assay [3] (72 h; ± S.D) was 8.6 ± 1.2 µM; in assay [3] (Toxoplasma gondii, Vero, 72 h; ± S.D), roughly 8 µM; in assay [4], 4.3 ± 0.5 µM; in assay [5] it was 0.6 ± 0.2 µM; in assay [6], 11.4 ± 1.3 µM; in assay [7], 1.5 ± 0.2 µM. Besides, the IC50 is 8.2 µM in assay [2] and roughly 8 µM in assay [2] (Madurella mycetomatis). The “SI selectivity index (macrophages/L. major amastigotes)” value in assay [5] amounted to 7.2. In assay [5], the “SI selectivity index, Vero kidney cells vs L. major amastigotes” value came to 19. Moreover, the “Metabolic activity upon treatment at 25 μM” value in assay [2] is 12.2 ± 6.9%. The “Metabolic activity upon treatment at 100 μM” value in assay [2] is reported as 13.1 ± 2.0%.

Consider `CCCCCCCCCCCCCCCC[n+]1ccc(C)cc1` [C4PicBr], for which, in assay [2], the “Metabolic activity upon treatment at 25 μM” value amounted to 18.4 ± 17.7% and the “Metabolic activity upon treatment at 100 μM” value amounted to 5.0 ± 0.8%. In addition, in assay [2] (setting [9]), the IC50 was 16.1 µM.

Take `CCCCCCCCCCCCCCCC[n+]1ccccc1C` [C2PicBr]: in assay [2], the “Metabolic activity upon treatment at 25 μM” value amounted to 8.7 ± 0.8% and the “Metabolic activity upon treatment at 100 μM” value is reported as 4.5 ± 0.8%. Moreover, the IC50 in assay [2] (setting [9]) is 16.1 µM.

`CC(C)=CCCC(C)=CCCc1ccncc1` [Maritima, 4-(4,8-dimethyl-3,7-nonadienyl)-pyridine]: the IC50 in assay [3] (Toxoplasma gondii, Vero; 72 h; ± S.D) is greater than 314 µM; in assay [4] (± S.D), greater than 314 µM; in assay [5] (intramacrophageal, ± S.D), greater than 314 µM; in assay [6], greater than 314 µM; in assay [7] (± S.D) it was greater than 314 µM. In addition, the “Metabolic activity upon treatment at 25 μM” value in assay [2] is 54% and 54.3 ± 7.5%. Besides, the “Metabolic activity upon treatment at 100 μM” value in assay [2] is reported as 13.8 ± 33.8%.

For `CCC(C)n1ncn(-c2ccc(N3CCN(c4ccc(OCC5COC(Cn6cncn6)(c6ccc(Cl)cc6Cl)O5)cc4)CC3)cc2)c1=O` (stereo not drawn) [Itraconazole, itraconazole], the “Metabolic activity upon treatment at 25 μM” value in assay [8] (25 μM, ± SD) was −1.04 ± 2.37%. Moreover, in assay [8] (100 μM, ± SD), the “Metabolic activity upon treatment at 100 μM” value is recorded as 2.34 ± 4.49%. The IC50 in assay [8] was 0.09 µM. In addition, the cure rate in assay [1] is listed as greater than 70%.
